Data taken from PubChem BioAssay (NCI).
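These data come from cells grown in 96-well plates and exposed to compound for 48 hours at five concentrations. The concentration for 50% growth inhibition is given as GI50. At the TGI there is no net growth.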

Experiments:
Assay in all cases: DTP human tumour cell line panel, 48 h
SR leukemia = system: SR leukemia
UACC-62 melanoma = system: UACC-62 melanoma
NCI/ADR-RES ovarian = system: NCI/ADR-RES ovarian
MDA-MB-435 = system: MDA-MB-435
NCI-H460 lung = system: NCI-H460 lung
HS 578T breast = system: HS 578T breast
UO-31 renal = system: UO-31 renal
HCT-116 colon = system: HCT-116 colon
MCF7 breast = system: MCF7 breast
SK-MEL-2 melanoma = system: SK-MEL-2 melanoma
ACHN renal = system: ACHN renal
HCT-15 colon = system: HCT-15 colon
U251 CNS = system: U251 CNS
SK-MEL-28 melanoma = system: SK-MEL-28 melanoma
MALME-3M melanoma = system: MALME-3M melanoma
HT29 colon = system: HT29 colon
UACC-257 melanoma = system: UACC-257 melanoma
BT-549 breast = system: BT-549 breast
SK-MEL-5 melanoma = system: SK-MEL-5 melanoma
M14 melanoma = system: M14 melanoma
DU-145 prostate = system: DU-145 prostate
A498 renal = system: A498 renal
HCC-2998 colon = system: HCC-2998 colon
OVCAR-3 ovarian = system: OVCAR-3 ovarian
SNB-75 CNS = system: SNB-75 CNS
786-0 renal = system: 786-0 renal
NCI-H226 lung = system: NCI-H226 lung
MDA-MB-231 breast = system: MDA-MB-231 breast
OVCAR-5 ovarian = system: OVCAR-5 ovarian
HL-60(TB) leukemia = system: HL-60(TB) leukemia
SF-268 CNS = system: SF-268 CNS
RXF 393 renal = system: RXF 393 renal
EKVX NSCLC = system: EKVX NSCLC
SK-OV-3 ovarian = system: SK-OV-3 ovarian
HOP-92 NSCLC = system: HOP-92 NSCLC
SF-295 CNS = system: SF-295 CNS
PC-3 prostate = system: PC-3 prostate
RPMI-8226 leukemia = system: RPMI-8226 leukemia
MOLT-4 leukemia = system: MOLT-4 leukemia
OVCAR-4 ovarian = system: OVCAR-4 ovarian
SW-620 colon = system: SW-620 colon
KM12 colon = system: KM12 colon
CCRF-CEM leukemia = system: CCRF-CEM leukemia
TK-10 renal = system: TK-10 renal
K-562 leukemia = system: K-562 leukemia
A549 NSCLC = system: A549 NSCLC
SF-539 CNS = system: SF-539 CNS
SNB-19 CNS = system: SNB-19 CNS
CAKI-1 renal = system: CAKI-1 renal
IGROV1 ovarian = system: IGROV1 ovarian
T-47D breast = system: T-47D breast
OVCAR-8 ovarian = system: OVCAR-8 ovarian
NCI-H522 lung = system: NCI-H522 lung
HOP-62 NSCLC = system: HOP-62 NSCLC
COLO 205 colon = system: COLO 205 colon
SN12C renal = system: SN12C renal

Compound: C=C(C)[C@@H]1CC[C@]2(COC)CC[C@]3(C)[C@H](CC[C@@H]4[C@@]5(C)CCCNC(C)(C)[C@@H]5CC[C@]43C)[C@@H]12
- GI50 (SR leukemia): 0.481 µM
- TGI (SR leukemia): 2.51 µM
- GI50 (UACC-62 melanoma): 1.68 µM
- TGI (UACC-62 melanoma): 3.11 µM
- GI50 (NCI/ADR-RES ovarian): 1.68 µM
- TGI (NCI/ADR-RES ovarian): 3.4 µM
- GI50 (MDA-MB-435): 1.61 µM
- TGI (MDA-MB-435): 3.09 µM
- GI50 (NCI-H460 lung): 1.64 µM
- TGI (NCI-H460 lung): 3.5 µM
- GI50 (HS 578T breast): 2.53 µM
- TGI (HS 578T breast): 5.57 µM
- GI50 (UO-31 renal): 1.45 µM
- TGI (UO-31 renal): 2.78 µM
- GI50 (HCT-116 colon): 1.13 µM
- TGI (HCT-116 colon): 2.59 µM
- GI50 (MCF7 breast): 0.301 µM
- TGI (MCF7 breast): 2.24 µM
- GI50 (SK-MEL-2 melanoma): 1.84 µM
- TGI (SK-MEL-2 melanoma): 3.52 µM
- GI50 (ACHN renal): 1.69 µM
- TGI (ACHN renal): 3.08 µM
- GI50 (HCT-15 colon): 1.43 µM
- TGI (HCT-15 colon): 2.92 µM
- GI50 (U251 CNS): 1.55 µM
- TGI (U251 CNS): 3.18 µM
- GI50 (SK-MEL-28 melanoma): 1.62 µM
- TGI (SK-MEL-28 melanoma): 2.99 µM
- GI50 (MALME-3M melanoma): 1.42 µM
- TGI (MALME-3M melanoma): 3.07 µM
- GI50 (HT29 colon): 0.562 µM
- TGI (HT29 colon): 2.09 µM
- GI50 (UACC-257 melanoma): 1.93 µM
- TGI (UACC-257 melanoma): 3.76 µM
- GI50 (BT-549 breast): 1.75 µM
- TGI (BT-549 breast): 3.21 µM
- GI50 (SK-MEL-5 melanoma): 1.59 µM
- TGI (SK-MEL-5 melanoma): 3 µM
- GI50 (M14 melanoma): 1.63 µM
- TGI (M14 melanoma): 3.34 µM
- GI50 (DU-145 prostate): 1.77 µM
- TGI (DU-145 prostate): 3.21 µM
- GI50 (A498 renal): 1.66 µM
- TGI (A498 renal): 3.11 µM
- GI50 (HCC-2998 colon): 1.26 µM
- TGI (HCC-2998 colon): 2.67 µM
- GI50 (OVCAR-3 ovarian): 1.9 µM
- TGI (OVCAR-3 ovarian): 3.73 µM
- GI50 (SNB-75 CNS): 1.75 µM
- TGI (SNB-75 CNS): 3.92 µM
- GI50 (786-0 renal): 1.75 µM
- TGI (786-0 renal): 3.48 µM
- GI50 (NCI-H226 lung): 1.93 µM
- TGI (NCI-H226 lung): 3.93 µM
- GI50 (MDA-MB-231 breast): 1.8 µM
- TGI (MDA-MB-231 breast): 3.38 µM
- GI50 (OVCAR-5 ovarian): 1.66 µM
- TGI (OVCAR-5 ovarian): 3.11 µM
- GI50 (HL-60(TB) leukemia): 1.33 µM
- TGI (HL-60(TB) leukemia): 3.51 µM
- GI50 (SF-268 CNS): 1.95 µM
- TGI (SF-268 CNS): 3.85 µM
- GI50 (RXF 393 renal): 1.55 µM
- TGI (RXF 393 renal): 2.94 µM
- GI50 (EKVX NSCLC): 1.63 µM
- TGI (EKVX NSCLC): 3.14 µM
- GI50 (SK-OV-3 ovarian): 1.79 µM
- TGI (SK-OV-3 ovarian): 3.32 µM
- GI50 (HOP-92 NSCLC): 1.15 µM
- TGI (HOP-92 NSCLC): 2.47 µM
- GI50 (SF-295 CNS): 1.78 µM
- TGI (SF-295 CNS): 3.24 µM
- GI50 (PC-3 prostate): 1.26 µM
- TGI (PC-3 prostate): 2.52 µM
- GI50 (RPMI-8226 leukemia): 1.17 µM
- TGI (RPMI-8226 leukemia): 3.43 µM
- GI50 (MOLT-4 leukemia): 1.25 µM
- TGI (MOLT-4 leukemia): 3.49 µM
- GI50 (OVCAR-4 ovarian): 1.54 µM
- TGI (OVCAR-4 ovarian): 3 µM
- GI50 (SW-620 colon): 1.77 µM
- TGI (SW-620 colon): 3.71 µM
- GI50 (KM12 colon): 1.82 µM
- TGI (KM12 colon): 3.65 µM
- GI50 (CCRF-CEM leukemia): 1.24 µM
- TGI (CCRF-CEM leukemia): 2.99 µM
- GI50 (TK-10 renal): 1.91 µM
- TGI (TK-10 renal): 3.52 µM
- GI50 (K-562 leukemia): 0.323 µM
- TGI (K-562 leukemia): 1.66 µM
- GI50 (A549 NSCLC): 1.6 µM
- TGI (A549 NSCLC): 3.16 µM
- GI50 (SF-539 CNS): 1.57 µM
- TGI (SF-539 CNS): 3.02 µM
- GI50 (SNB-19 CNS): 1.71 µM
- TGI (SNB-19 CNS): 3.13 µM
- GI50 (CAKI-1 renal): 1.59 µM
- TGI (CAKI-1 renal): 3.07 µM
- GI50 (IGROV1 ovarian): 1.56 µM
- TGI (IGROV1 ovarian): 3.01 µM
- GI50 (T-47D breast): 1.18 µM
- TGI (T-47D breast): 2.99 µM
- GI50 (OVCAR-8 ovarian): 1.91 µM
- TGI (OVCAR-8 ovarian): 4 µM
- GI50 (NCI-H522 lung): 1.73 µM
- TGI (NCI-H522 lung): 3.42 µM
- GI50 (HOP-62 NSCLC): 1.95 µM
- TGI (HOP-62 NSCLC): 3.9 µM
- GI50 (COLO 205 colon): 1.49 µM
- TGI (COLO 205 colon): 3.22 µM
- GI50 (SN12C renal): 1.57 µM
- TGI (SN12C renal): 3.09 µM
